# Active and inactive are the calls of the source.
# Legend:
# [1] = target: Glyceraldehyde-3-phosphate dehydrogenase (Homo sapiens, UniProt P04406)
# [2] = target: Alkaline phosphatase, placental type (Homo sapiens, UniProt P05187); assay: PLAP enzyme inhibitors, confirmation, biochemical, luminescence (AID 1512); format: functional
# [3] = target: T1, Alkaline phosphatase, tissue-nonspecific isozyme (Homo sapiens, UniProt P05186); assay: human TNAP enzyme inhibitors, SAR follow-up, biochemical, luminescent, dose response (AID 1056)
# T1 sequence (P05186 whole entry): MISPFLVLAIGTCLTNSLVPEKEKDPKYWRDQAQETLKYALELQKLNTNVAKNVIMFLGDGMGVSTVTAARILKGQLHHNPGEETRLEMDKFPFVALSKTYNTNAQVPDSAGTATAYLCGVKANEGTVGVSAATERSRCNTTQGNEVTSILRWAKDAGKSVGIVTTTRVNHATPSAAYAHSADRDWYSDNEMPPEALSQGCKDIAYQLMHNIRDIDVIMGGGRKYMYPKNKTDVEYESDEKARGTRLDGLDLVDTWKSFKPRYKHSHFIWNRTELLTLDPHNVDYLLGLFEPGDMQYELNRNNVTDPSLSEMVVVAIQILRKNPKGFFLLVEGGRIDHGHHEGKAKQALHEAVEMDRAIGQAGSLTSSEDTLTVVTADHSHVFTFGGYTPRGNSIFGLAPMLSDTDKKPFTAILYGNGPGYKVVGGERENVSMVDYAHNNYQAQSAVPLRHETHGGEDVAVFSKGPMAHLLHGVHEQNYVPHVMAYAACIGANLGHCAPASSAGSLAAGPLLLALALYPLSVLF
# Hexokinase = Hexokinase (Trypanosoma brucei, UniProt Q38C41); assay: Confirmation assay for inhibitors of Trypanosoma brucei hexokinase 1-Analogue-first series. [Related pubchem assays (depositor defined):AID1430, AID1632, AID2516, AID2560, AID2579, AID2600, AID449725, AID492951]; format: functional
# [4] = inhibitors of SNCA 5'UTR-driven reporter translation, confirmation, H4 neuroglioma cells, luminescence (AID 1988); format: functional, cell-based
# [5] = target: Type-1 angiotensin II receptor (Homo sapiens, UniProt P30556); assay: AT1 receptor agonists, dose response, selectivity assay for APJ receptor agonist project, cell-based, uHTS hits (AID 488865); format: functional;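 further: beta-arrestin recruitment to AT1 measured by enzyme fragment complementation luminescence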
# [6] = inhibitors of firefly luciferase expression or activity, dose response, H4 neuroglioma cells, luminescence (AID 1990); format: functional, cell-based
# [7] = Luminescence Cell-Based Dose Response HTS to Identify Inhibitors of 5'UTR Stem-Loop Driven Prion Protein mRNA Translation in H4 Neuroglioblastoma Cells. [Related pubchem assays: 1827 (Project Summary), 1813 (Primary HTS)]; format: functional
# [8] = target: T2, Kappa-type opioid receptor (Homo sapiens, UniProt P41145); assay: SAR analysis of small molecule antagonists of the kappa opioid receptor via a luminescent beta-arrestin assay - Set 3. [Related pubchem assays (depositor defined):AID1777, AID1778, AID1785, AID1786, AID1966, AID2133, AID2136, AID2285, AID2495]; format: functional
# [9] = target: Delta-type opioid receptor (Homo sapiens, UniProt P41143); assay: SAR Analysis of Antagonists of the DOR Receptor using an Image-Based Assay - Set 3. [Related pubchem assays (depositor defined):AID1777, AID1785]; format: functional;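 further: U2OS cells expressing DOR1 and beta-arrestin GFP stimulated with 100 nM SNC80; imaging of GFP-tagged beta-arrestin moving into spots after receptor activation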
# [10] = target: T2, Kappa-type opioid receptor; assay: SAR analysis of Antagonists of the Kappa Opioid Receptor (KOR) using an Image-Based Assay - Set 4. [Related pubchem assays (depositor defined):AID1777, AID1785]; format: functional
# Mu-type opioid receptor = Mu-type opioid receptor (Homo sapiens, UniProt P35372); assay: SAR Analysis of Antagonists of the MOR Receptor using an Image-Based Assay - Set 3. [Related pubchem assays (depositor defined):AID1777, AID1785, AID1786, AID1966, AID2133, AID2136, AID2284, AID2285, AID2420]; format: functional
# [11] = target: Peroxisome proliferator-activated receptor gamma/Nuclear receptor coactivator 3 (Homo sapiens, UniProt P37231); assay: TR-FRET dose response biochemical High Throughput Screening assay for agonists of the steroid receptor coactivator 3 (SRC-3) recruitment by the peroxisome proliferator-activated receptor gamma (PPAR gamma): non-selective agonists. [Related pubchem assays: 1301 (Confirmation screen.), 1048 (Primary screen.)]; format: functional
# Phosphomannomutase 2 = Phosphomannomutase 2 (Homo sapiens, UniProt O15305); assay: Counter screen SAR assay for PMM2 inhibitors via a fluorescence intensity assay. [Related pubchem assays (depositor defined):AID1545, AID1574]
# [12] = target: T3, Mannose-6-phosphate isomerase (Homo sapiens, UniProt P34949); assay: PMI enzyme inhibitors, confirmation, biochemical, fluorescence intensity (AID 1535)
# T3 sequence (P34949 whole entry): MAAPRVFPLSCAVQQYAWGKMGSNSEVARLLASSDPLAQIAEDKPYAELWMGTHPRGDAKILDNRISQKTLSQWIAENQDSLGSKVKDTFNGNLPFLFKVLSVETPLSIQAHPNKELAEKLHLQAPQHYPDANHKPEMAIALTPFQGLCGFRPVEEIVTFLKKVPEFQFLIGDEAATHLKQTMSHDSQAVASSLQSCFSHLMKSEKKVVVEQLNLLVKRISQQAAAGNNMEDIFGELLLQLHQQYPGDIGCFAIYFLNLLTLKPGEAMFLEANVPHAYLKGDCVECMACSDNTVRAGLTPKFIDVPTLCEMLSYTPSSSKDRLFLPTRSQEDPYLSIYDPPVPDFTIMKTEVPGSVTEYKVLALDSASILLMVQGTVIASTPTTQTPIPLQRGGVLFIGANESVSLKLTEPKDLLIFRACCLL
# Procathepsin L = Procathepsin L (Homo sapiens, UniProt P07711); assay: cathepsin L inhibitors, dose response, counter-screen for M1/M17 aminopeptidase inhibitor project, biochemical, QFRET, 1536-well (AID 2214)
# [13] = target: Peroxisome proliferator-activated receptor gamma/Nuclear receptor coactivator 2 (Homo sapiens, UniProt P37231); assay: TR-FRET dose response biochemical High Throughput Screening assay for agonists of the steroid receptor coactivator 2 (SRC-2) recruitment by the peroxisome proliferator-activated receptor gamma (PPAR gamma): non-selective agonists. [Related pubchem assays: 1297, 1032 ]; format: functional
# [14] = target: FAD-linked sulfhydryl oxidase ALR (Homo sapiens, UniProt P55789); assay: inhibitors of human ALR sulfhydryl oxidase, dose response, biochemical, H2O2 detection, luminescence, cherry-pick (AID 493248)
# Aspartyl aminopeptidase = Aspartyl aminopeptidase (Plasmodium falciparum 3D7, UniProt Q8I2J3); assay: Counterscreen for inhibitors of M1 and M17 aminopeptidases: QFRET-based biochemical high throughput dose response assay for inhibitors of the Plasmodium falciparum M18 Aspartyl Aminopeptidase (PFM18AAP). [Related PubChem assays: 1619 (Screening assay (M17LAP inhibitors).), 1445 (Screening assay (M1AAP inhibitors).)]
# Leucine aminopeptidase = target: T4, Leucine aminopeptidase (Plasmodium falciparum 3D7, UniProt Q8IL11); assay: P. falciparum M17LAP inhibitors, primary screen, biochemical, fluorogenic H-Leu-NHMec substrate, 1536-well (AID 1619); format: functional
# T4 sequence (Q8IL11 whole entry): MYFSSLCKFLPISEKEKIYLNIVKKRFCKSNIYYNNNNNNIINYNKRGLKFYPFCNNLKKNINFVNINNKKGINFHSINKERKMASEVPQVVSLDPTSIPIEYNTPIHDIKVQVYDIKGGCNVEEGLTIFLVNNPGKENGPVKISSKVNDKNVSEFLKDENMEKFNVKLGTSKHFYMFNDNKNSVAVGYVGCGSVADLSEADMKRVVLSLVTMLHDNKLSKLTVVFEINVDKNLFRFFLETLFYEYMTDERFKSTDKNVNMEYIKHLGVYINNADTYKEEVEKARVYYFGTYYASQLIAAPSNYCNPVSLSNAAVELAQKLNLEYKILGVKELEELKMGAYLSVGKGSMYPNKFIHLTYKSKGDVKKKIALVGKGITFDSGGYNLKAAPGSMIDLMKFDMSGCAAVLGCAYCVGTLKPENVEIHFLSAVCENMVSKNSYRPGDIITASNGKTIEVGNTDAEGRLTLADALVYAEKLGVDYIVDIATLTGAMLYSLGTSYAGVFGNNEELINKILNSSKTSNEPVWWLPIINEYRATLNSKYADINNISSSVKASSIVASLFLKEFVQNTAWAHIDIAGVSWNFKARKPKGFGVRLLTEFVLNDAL
# [15] = target: Peroxisome proliferator-activated receptor gamma/Nuclear receptor coactivator 1 (Homo sapiens, UniProt P37231); assay: TR-FRET dose response biochemical High Throughput Screening assay for agonists of the steroid receptor coactivator 1 (SRC-1) recruitment by the peroxisome proliferator-activated receptor gamma (PPAR gamma): non-selective agonists. [Related pubchem assays (depositor defined):AID1300, AID1808, AID504735, AID631]; format: protein assay
# Coagulation factor XII = target: T5, Coagulation factor XII (Homo sapiens, UniProt P00748); assay: Factor XIIa Dose Response Confirmation from Single Well HTS. [Related pubchem assays (depositor defined):AID701]; format: functional
# T5 sequence (P00748 whole entry): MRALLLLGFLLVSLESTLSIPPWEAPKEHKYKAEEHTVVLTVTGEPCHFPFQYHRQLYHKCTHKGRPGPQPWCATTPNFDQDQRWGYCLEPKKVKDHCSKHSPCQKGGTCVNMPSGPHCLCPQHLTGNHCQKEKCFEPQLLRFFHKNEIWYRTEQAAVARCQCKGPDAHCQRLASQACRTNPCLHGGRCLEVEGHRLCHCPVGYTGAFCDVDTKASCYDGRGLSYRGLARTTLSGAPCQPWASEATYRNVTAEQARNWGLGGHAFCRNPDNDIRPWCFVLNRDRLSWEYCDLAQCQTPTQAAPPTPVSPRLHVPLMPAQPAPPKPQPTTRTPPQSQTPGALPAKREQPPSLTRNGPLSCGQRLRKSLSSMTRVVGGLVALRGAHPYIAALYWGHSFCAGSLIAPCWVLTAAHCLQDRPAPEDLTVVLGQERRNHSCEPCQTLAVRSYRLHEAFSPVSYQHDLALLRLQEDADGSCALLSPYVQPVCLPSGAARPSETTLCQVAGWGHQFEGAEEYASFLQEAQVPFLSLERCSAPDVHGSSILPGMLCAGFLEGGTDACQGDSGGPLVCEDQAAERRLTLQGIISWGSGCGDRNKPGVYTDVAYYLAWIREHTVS
# [16] = target: T6, Microphthalmia-associated transcription factor (Homo sapiens, UniProt O75030); assay: TRPM1 promoter luciferase signal decrease, dose response, MITF inhibitor project, cell-based, SK-MEL-5, cherry-picked, set 4 (AID 493102); format: functional
# T6 sequence (O75030 whole entry): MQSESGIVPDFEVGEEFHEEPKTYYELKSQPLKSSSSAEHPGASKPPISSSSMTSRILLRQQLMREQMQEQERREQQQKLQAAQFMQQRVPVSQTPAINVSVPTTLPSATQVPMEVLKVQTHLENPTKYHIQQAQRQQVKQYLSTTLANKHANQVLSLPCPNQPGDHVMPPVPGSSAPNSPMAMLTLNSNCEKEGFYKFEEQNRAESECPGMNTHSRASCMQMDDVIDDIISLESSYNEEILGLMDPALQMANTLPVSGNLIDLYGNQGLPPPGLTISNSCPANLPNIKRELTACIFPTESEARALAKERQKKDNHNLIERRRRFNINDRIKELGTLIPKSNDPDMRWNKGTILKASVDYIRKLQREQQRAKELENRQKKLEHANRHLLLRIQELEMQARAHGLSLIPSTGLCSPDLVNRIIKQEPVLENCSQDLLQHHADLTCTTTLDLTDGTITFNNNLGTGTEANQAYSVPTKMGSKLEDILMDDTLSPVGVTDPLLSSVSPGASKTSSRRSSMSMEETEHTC
# [17] = target: T6, Microphthalmia-associated transcription factor; assay: TRPM1 promoter luciferase signal decrease, dose response, MITF inhibitor project, cell-based, SK-MEL-5, cherry-picked, set 3 (AID 493073); format: functional
# [18] = target: T7, E3 ubiquitin-protein ligase XIAP (Homo sapiens, UniProt P98170); assay: XIAP antagonists, biochemical, IAP family, fluorescence polarization (AID 1018); format: functional
# [19] = target: T7, E3 ubiquitin-protein ligase XIAP; assay: Counter Screen using XIAP-Bir3 for Chemical Antagonists of Bir1/2 domains of IAP-family anti-apoptotic proteins. [Related pubchem assays (depositor defined):AID1018, AID1449, AID1514, AID1638, AID1749, AID1750, AID488957, AID488963]
# [20] = target: T6, Microphthalmia-associated transcription factor; assay: MITF Measured in Cell-Based System Using Plate Reader - 2084-01_Inhibitor_DoseNoFile_CherryPick_Activity_Set2. [Related pubchem assays (depositor defined):AID488944]; format: functional
# T-cell = assay: inhibitors of CD8+ T cell–vesicle binding, dose response, mouse 2C CD8+ T cells, flow cytometry (AID 485284); format: functional
# T7 sequence (P98170 whole entry): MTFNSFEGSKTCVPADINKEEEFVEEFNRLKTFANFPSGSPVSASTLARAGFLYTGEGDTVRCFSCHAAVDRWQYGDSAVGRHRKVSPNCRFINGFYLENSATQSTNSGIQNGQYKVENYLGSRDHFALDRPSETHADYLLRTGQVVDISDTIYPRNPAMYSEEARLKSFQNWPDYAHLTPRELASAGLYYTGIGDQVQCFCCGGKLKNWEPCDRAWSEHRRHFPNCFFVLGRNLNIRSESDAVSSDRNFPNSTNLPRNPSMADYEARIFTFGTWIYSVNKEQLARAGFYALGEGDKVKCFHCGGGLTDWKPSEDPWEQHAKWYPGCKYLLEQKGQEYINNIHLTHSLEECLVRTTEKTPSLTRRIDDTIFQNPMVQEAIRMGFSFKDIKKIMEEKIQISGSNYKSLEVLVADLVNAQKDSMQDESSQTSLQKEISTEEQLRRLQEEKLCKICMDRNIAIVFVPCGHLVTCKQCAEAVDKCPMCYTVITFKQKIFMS
# T2 sequence (P41145 whole entry): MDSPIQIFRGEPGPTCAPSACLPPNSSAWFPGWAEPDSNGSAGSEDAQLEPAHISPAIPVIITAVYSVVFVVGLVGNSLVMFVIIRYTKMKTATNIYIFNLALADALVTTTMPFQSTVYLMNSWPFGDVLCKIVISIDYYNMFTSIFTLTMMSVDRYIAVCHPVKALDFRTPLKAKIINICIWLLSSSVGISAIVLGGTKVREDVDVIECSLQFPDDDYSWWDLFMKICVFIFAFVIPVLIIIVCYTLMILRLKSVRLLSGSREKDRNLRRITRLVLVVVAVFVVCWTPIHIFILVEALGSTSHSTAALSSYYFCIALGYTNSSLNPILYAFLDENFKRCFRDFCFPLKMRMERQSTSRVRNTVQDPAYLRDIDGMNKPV
# Chain of Aspartyl aminopeptidase (Q8I2J3 whole entry): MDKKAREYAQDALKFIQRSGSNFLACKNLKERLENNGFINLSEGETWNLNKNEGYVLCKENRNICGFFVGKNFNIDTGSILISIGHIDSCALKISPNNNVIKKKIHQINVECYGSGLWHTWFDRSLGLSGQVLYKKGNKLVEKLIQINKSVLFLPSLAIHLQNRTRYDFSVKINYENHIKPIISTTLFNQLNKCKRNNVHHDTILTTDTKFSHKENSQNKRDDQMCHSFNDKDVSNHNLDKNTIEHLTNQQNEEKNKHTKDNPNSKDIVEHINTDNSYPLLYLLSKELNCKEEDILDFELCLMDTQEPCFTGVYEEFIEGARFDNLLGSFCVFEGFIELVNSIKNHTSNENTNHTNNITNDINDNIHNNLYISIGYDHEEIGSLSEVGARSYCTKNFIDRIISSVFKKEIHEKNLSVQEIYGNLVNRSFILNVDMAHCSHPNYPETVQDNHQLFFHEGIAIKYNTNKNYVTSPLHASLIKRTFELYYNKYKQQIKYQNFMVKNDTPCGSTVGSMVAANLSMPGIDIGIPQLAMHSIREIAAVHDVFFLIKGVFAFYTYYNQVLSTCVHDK
# Chain of Mu-type opioid receptor (P35372 whole entry): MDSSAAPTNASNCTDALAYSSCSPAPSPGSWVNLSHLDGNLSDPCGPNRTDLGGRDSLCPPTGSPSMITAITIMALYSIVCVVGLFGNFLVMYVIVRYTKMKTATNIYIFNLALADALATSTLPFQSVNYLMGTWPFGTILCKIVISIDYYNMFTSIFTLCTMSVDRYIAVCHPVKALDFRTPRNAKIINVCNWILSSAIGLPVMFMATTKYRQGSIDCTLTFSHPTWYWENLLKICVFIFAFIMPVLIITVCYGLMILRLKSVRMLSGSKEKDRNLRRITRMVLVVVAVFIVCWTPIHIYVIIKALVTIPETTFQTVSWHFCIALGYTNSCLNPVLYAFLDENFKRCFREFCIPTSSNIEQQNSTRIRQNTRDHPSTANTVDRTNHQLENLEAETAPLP
# Chain of Delta-type opioid receptor (P41143 whole entry): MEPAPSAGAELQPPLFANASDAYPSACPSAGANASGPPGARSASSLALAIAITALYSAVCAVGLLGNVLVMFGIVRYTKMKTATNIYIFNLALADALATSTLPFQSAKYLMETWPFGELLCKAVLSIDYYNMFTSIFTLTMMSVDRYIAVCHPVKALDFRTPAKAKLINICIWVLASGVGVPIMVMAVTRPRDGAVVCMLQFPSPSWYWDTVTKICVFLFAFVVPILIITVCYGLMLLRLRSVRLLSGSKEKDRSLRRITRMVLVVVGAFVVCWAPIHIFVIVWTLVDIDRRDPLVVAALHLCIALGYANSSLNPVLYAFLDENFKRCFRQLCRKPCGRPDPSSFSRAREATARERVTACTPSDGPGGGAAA
# Chain of FAD-linked sulfhydryl oxidase ALR (P55789 whole entry): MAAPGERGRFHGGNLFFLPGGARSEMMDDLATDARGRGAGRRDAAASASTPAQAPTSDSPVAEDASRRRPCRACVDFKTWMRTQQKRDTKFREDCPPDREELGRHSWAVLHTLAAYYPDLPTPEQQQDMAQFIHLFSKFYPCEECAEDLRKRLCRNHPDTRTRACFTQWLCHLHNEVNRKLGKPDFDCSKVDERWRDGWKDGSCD
# Chain of Type-1 angiotensin II receptor (P30556 whole entry, the tested form may be a part): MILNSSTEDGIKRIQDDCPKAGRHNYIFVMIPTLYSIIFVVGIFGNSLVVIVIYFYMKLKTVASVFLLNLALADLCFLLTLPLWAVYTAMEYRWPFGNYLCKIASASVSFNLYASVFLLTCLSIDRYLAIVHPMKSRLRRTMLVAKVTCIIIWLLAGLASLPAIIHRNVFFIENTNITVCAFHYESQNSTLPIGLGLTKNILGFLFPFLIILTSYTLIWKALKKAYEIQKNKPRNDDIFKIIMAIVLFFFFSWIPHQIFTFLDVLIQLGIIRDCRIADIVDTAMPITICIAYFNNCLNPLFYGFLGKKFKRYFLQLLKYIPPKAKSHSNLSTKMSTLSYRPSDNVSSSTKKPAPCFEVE
# Chain of Alkaline phosphatase, placental type (P05187 whole entry): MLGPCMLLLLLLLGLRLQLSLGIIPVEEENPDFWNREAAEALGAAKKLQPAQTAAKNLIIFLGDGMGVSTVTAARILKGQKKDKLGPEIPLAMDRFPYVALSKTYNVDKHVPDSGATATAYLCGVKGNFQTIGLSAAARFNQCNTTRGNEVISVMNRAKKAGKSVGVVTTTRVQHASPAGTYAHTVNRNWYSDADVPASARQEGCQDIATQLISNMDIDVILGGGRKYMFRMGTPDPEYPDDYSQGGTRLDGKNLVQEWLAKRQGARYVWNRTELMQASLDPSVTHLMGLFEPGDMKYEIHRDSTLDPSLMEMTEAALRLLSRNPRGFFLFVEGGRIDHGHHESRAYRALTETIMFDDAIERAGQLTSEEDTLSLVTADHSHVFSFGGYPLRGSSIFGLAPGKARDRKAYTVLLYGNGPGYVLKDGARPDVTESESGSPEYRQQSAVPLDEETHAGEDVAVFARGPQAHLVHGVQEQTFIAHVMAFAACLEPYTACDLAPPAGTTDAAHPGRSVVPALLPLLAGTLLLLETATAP
# Chain of Glyceraldehyde-3-phosphate dehydrogenase (P04406 whole entry): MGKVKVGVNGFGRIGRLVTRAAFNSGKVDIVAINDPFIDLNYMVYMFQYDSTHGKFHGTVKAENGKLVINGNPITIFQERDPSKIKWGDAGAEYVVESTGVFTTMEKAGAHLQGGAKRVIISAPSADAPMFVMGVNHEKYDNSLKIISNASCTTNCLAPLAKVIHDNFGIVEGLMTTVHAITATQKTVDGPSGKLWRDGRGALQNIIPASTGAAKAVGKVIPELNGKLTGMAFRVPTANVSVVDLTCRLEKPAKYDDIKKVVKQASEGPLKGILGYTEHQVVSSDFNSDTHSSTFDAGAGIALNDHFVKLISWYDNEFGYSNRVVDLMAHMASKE
# Chain of Hexokinase (Q38C41 whole entry): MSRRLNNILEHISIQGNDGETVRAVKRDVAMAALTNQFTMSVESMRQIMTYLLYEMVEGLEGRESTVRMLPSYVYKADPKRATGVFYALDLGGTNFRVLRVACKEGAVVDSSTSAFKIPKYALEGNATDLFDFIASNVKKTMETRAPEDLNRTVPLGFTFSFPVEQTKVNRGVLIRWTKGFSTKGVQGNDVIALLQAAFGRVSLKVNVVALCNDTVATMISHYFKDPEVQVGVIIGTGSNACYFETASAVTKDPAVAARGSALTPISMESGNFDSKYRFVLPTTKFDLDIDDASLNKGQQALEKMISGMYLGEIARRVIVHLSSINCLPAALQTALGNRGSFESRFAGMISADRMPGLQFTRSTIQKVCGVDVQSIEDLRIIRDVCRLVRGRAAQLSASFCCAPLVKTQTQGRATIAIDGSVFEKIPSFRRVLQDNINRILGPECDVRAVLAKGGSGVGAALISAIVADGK
# Chain of Procathepsin L (P07711 whole entry): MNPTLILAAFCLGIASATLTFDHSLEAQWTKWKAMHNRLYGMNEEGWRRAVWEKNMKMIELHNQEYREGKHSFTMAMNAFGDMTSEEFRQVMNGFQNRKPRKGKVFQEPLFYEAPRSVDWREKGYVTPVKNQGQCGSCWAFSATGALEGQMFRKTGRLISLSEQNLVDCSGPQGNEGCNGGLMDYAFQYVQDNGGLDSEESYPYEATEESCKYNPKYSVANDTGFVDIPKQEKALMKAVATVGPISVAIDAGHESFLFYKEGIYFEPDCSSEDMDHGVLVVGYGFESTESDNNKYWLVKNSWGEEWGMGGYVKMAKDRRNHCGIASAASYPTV
# Chain of Phosphomannomutase 2 (O15305 whole entry): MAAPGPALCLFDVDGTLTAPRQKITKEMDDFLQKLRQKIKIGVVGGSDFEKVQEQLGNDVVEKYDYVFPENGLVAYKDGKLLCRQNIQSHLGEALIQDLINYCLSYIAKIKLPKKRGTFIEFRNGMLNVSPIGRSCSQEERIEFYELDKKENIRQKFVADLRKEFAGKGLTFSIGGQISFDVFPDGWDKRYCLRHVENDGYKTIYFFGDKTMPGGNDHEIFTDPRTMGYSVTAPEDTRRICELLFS
smiles,measurement,setting,value
CSc1nnc(NC(=O)c2cc(F)c(F)c(F)c2F)[nH]1,IC50,[1],> 100 µM (not active)
same,IC50,[2],> 100 µM (inactive)
same,IC50,[3],> 100 µM (inactive)
O=C(Nc1cc(Cl)ccc1C(=O)O)c1ccsc1,IC50,Hexokinase,> 25 µM (inactive)
C=CCn1c(SCC(=O)N2CCN(c3ccccc3)CC2)nc2c3ccccc3nc-2c1O,EC50,[4],8.55 µM (active)
same,EC50,[5],> 100 µM (inactive)
same,EC50,[6],> 120 µM (not active)
same,EC50,[7],14.2 µM (active)
Cc1ccnc2c1n1cccc1c(=O)n2CC(=O)NCCCN1CCN(c2ccccc2)CC1,IC50,[8],4.95 µM (active)
same,IC50,[9],> 32 µM (inactive)
same,IC50,[10],2.56 µM (active)
same,IC50,Mu-type opioid receptor,22.5 µM (inactive)
Sc1n[nH]c(-c2cccc(Cl)c2)n1,EC50,[11],> 79.4 µM (not active)
same,IC50,Phosphomannomutase 2,> 100 µM (inactive)
same,IC50,[12],1.94 µM (active)
same,IC50,Procathepsin L,> 59.6 µM (not active)
same,EC50,[13],> 79.4 µM (not active)
same,AC50,[14],0.097 µM (active)
same,IC50,Aspartyl aminopeptidase,15.6 µM (not active)
same,IC50,Leucine aminopeptidase,3.56 µM (active)
same,EC50,[15],> 79.4 µM (inactive)
O=C(Oc1ccc2c3c(c(=O)oc2c1)CCC3)c1ccco1,IC50,Coagulation factor XII,6.22 µM (active)
Cc1cc2oc(=O)cc(C)c2cc1NC(=O)CCC(=O)O,AC50,[16],> 350 µM (inactive)
same,AC50,[17],> 350 µM (inactive)
same,IC50,[18],> 100 µM (not active)
same,IC50,[19],> 100 µM (inactive)
same,AC50,[20],> 350 µM (inactive)
COc1ccc(S(=O)(=O)N2CCCCC2)cc1NC(=O)c1cnc(C)cn1,EC50,T-cell,0.558 µM (active)

# From ChEMBL document CHEMBL1201862, “PubChem BioAssay data set” (2004)
